Six compounds from patent publication US9161924B2, “Factor IXa inhibitors” (Merck Sharp & Dohme Corp., priority 2011, dated 2015) can be followed below.

The target of the test is human factor IXa (Homo sapiens (Human), UniProt P00740). In words: Factor IXa enzyme assay (inhibitory activity against factor IXa). Type of test: biochemical. The following applies: substrate SPECTROFLUOR FIXa 100 μM, factor IXa 2.0 μg/ml, 60 minutes at room temperature, fluorescence. Here is the method:
Determination of Inhibitory Activity Against Factor IXa
Inhibitory activity against factor IXa was tested using the substrate SPECTROFLUOR FIXa (American Diagnostica Inc.; 500 West Avenue, Stamford, Conn. 06902 USA; Pr. No. 299F) and human factor IXa (American Diagnostica Inc.; Pr. No. 449b). Test substances dissolved in buffer A (50 mM α,α,α-tris (hydroxymethyl)methylamine (Tris), 100 mM NaCl, 5 mM CaCl2, 15% (v/v) ethylene glycol, pH 8.0) were mixed with factor IXa (2.0 μg/ml final concentration). The enzyme reaction was started by addition of SPECTROFLUOR FIXa (100 μM final concentration). After incubation for 60 minutes at room temperature, the reaction was stopped by the addition of 20% (v/v) acetic acid solution, and then fluorescence value measured (Excitation Wavelength:355 nm, Emission Wavelength; 460 nm) in a microtiter plate reader (ARVO 1420 Multilabel Counter; PerkinElmer).
IC50 was calculated from a dilution series of the test substance with the aid of the software, Symix Assay Explorer (Symyx Technologies, Inc.).

As usually defined, the IC50 is the concentration that inhibits the measured activity by half. The low end stands for higher potency, the high end for lower potency.

Counter-ions that a name gives are not always drawn.

human factor IXa, sequence (P00740 227-461): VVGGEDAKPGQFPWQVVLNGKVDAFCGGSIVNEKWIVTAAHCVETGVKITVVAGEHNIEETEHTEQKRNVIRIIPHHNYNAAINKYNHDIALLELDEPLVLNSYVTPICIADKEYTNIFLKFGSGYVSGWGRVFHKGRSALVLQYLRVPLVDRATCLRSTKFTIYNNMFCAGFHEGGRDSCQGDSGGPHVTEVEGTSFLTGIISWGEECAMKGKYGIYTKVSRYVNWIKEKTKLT
human factor IXa, sequence (P00740 47-191 partner): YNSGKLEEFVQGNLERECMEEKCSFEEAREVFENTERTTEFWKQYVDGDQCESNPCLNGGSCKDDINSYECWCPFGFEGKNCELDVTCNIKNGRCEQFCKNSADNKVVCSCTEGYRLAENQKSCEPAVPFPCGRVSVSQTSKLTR

Turning to `Nc1nccc2cc(NC(=O)C(O)c3cccc(-c4ccc(OC(F)(F)F)cc4)c3)ccc12` (stereo not drawn) [Compound 22, N-(1-aminoisoquinolin-6-yl)-2-hydroxy-2-(4′-(trifluoromethoxy)biphenyl-3-yl)acetamide], the midpoint of inhibition, the IC50, lay at 760 nM. The same measure for `CC(C)(C)c1ccc(-c2cccc(C(O)C(=O)Nc3ccc(CN)cc3)c2)cc1` (stereo not drawn) [Compound 52, N-(4-(aminomethyl)phenyl)-2-(4′-tert-butylbiphenyl-3-yl)-2-hydroxyacetamide hydrochloride]: 1450 nM; for `N=C(N)c1ccc(NC(=O)C(O)c2cccc(-c3ccc(OC(F)(F)F)cc3)c2)cc1` (stereo not drawn) [Compound 13, N-(4-carbamimidoylphenyl)-2-hydroxy-2-(4′-(trifluoromethoxy)biphenyl-3-yl)acetamide]: 450 nM; for `CC(C)(C)c1ccc(-c2cccc(C(O)C(=O)Nc3ccc(C(=N)N)cc3)c2)cc1` (stereo not drawn) [Compound 37, 2-(4′-tert-butylbiphenyl-3-yl)-N-(4-carbamimidoylphenyl)-2-hydroxyacetamide hydrochloride]: 160 nM. For `N=C(N)c1ccc(NC(=O)C(O)c2cccc(-c3ccc(OC(F)(F)F)cc3)c2)cc1` (stereo not drawn) [Compound 9, N-(4-carbamimidoylphenyl)-2-hydroxy-2-(4′-(trifluoromethoxy)biphenyl-3-yl)acetamide], inhibition was half-maximal at 440 nM (IC50). Compared with the last compound, the IC50 is about 2.8-fold higher.

As to `CC(C)(C)c1ccc(-c2cccc(C(O)C(=O)Nc3ccc4c(N)nccc4c3)c2)cc1` (stereo not drawn) [Compound 42, N-(1-aminoisoquinolin-6-yl)-2-(4′-tert-butylbiphenyl-3-yl)-2-hydroxyacetamide hydrochloride], the IC50 was determined as 695 nM.
